Blank lines part the entries; values can stand above or below the compound they belong to.
Columns and labels:
ApoE −/− mice = assay: Lipid content of aortas in ApoE −/− fat fed mice; format: in vivo; details: oral 50 mg/kg/day for 7 days, oil-red O staining, FIG. 6
Procedure: Lipid Content: 8 week old ApoE −/− mice were fed a high fat diet for 2 months and then placed on normal chow. The mice were then orally dosed for 7 days with either CMC-tween (control) or Compound C at 50 mg/kg/day. At the end of the study, the aorta was dissected out, fixed in the O.C.T., sections were prepared, stained with oil-red O, and mounted under cover slips. The oil-red O staining was analyzed using quantitation software and reported as lipid content per lesion area.
Atherosclerosis is also associated with high levels of lipid content in aortas. Compound C was administered to mice according to the method described above and according to conventional animal testing protocol. The lipid content of the aortas was measured.

GATA = GATA luciferase reporter assay (GATA activity); format: cell-based, human; details: HepG2 cells transfected with GATA luciferase construct, treated overnight; FIG. 3
Procedure: GATA activity: HepG2 cells were grown in T-75 flasks prior to study. 24-well plates were seeded in normal medium without antibiotics to yield ˜50% confluency. The following day, cells were transfected according to the manufacturer's protocol and allowed to incubate overnight. The next day, the media was replaced and cells were treated with vehicle (DMSO) or one of Compounds A-E overnight. Cells were lysed by adding lysis buffer and assayed for luciferase activity.
An in vitro high-throughput assay based on luciferase activity to screen for and identify agents that upregulate GATA activity was developed. HepG2 cells were grown in T-75 flasks prior to study. 24-well plates were seeded in normal medium without antibiotics to yield ˜50% confluency. The following day, cells were transfected (Roche, FuGENE 6 transfection reagent, cat#11815091001) with a GATA luciferase construct (Panomics, cat#LR0027) according to the manufacturer's protocol and allowed to incubate overnight. The next day, the media was replaced and cells were treated with vehicle (DMSO) or GATA inducer candidate compounds (Compounds A-E) overnight. Cells were lysed by adding lysis buffer (Promega, cat#E1500) and assayed for luciferase activity (Perkin Elmer Envision 2101 Multi-Label Reader).

RCT genes = assay: Real time quantitative PCR screen for RCT gene induction; format: cell-based, human; details: cells treated, total RNA, FIG. 4
Procedure: PT-PCR Screen: Human liver cells (HepG2) were grown in T-75 flasks prior to study. 96-well plates were seeded, and the following day, cells were washed with PBS and treated with serum free media for 24 hours. The next day, cells were treated with vehicle (DMSO) or with one of Compounds A-E overnight. RNA was isolated and RT-PCR was performed to examine changes in RCT gene message levels normalized to actin.
An in vitro high-throughput assay based on real time quantitative PCR was developed to screen for and identify agents that simultaneously upregulate RCT genes. Cells were treated with pharmaceutical agents, some of which are GATA inducers as described above. Total RNA was isolated and used in the real time assay.

[1] = tested on: RCT gene (apolipoprotein E, SRB1 and LCAT); assay: RCT gene expression in pancreatic beta cells; format: cell-based; details: 25 uM, FIG. 7
Procedure: Pancreatic beta cells were incubated with compound A (25 uM). Following treatment total RNA was isolated and RCT gene (apolipoprotein E, SRB1 and LCAT) expression was determined.

Pancreatic beta cells = assay: Glucose stimulated insulin secretion in pancreatic beta cells; format: cell-based; details: 25 uM, FIG. 8
Procedure: Pancreatic beta cells were incubated with compound A (25 uM). Following treatment glucose stimulated insulin secretion was determined.

cholesterol fed rat = assay: HDL in cholesterol fed rat model; format: in vivo; details: FIG. 5
Procedure: Lipid Measurements: Lipid levels were measured at the end of the studies using commercially available kits.
Atherosclerosis is associated with dyslipidemia (increased LDL and low HDL).

GATA1 = assay: GATA knock-down (siRNA), inducible RCT gene expression; format: cell-based, human; details: normal vs GATA-knockdown (siRNA) HepG2 cells; FIG. 2
Procedure: GATA knock-down: HepG2 cells were grown in T-75 flasks prior to study. Transfection of GATA1 specific siRNA in 24-well plates was performed according to the manufacturer's instructions. After 48 hours, RNA was isolated and RT-PCR was performed to examine changes in GATA1 and RCT message levels all normalized to actin. In some experiments, after 48 hours post transfection, media was removed and normal growth media+one of Compounds A-E or DMSO control was added to the wells. RNA isolation and RT-PCR was then performed as stated above.
To determine the role of GATA on inducible RCT gene expression, molecular approaches were used to reduce GATA expression. GATA expression was reduced by siRNA gene silencing. In this test, a candidate compound (Compound A), known for its ability to function as a GATA inducer, was added to both normal and GATA-knockdown cells as described above.

Ob/ob mice = assay: Plasma glucose in ob/ob mice (insulin resistance and diabetes model); format: in vivo; details: 2 and 4 weeks of treatment, FIG. 9
Procedure: Glucose Measurements: Glucose levels were measured at the end of the studies using commercially available kits. Ob/ob mice were treated with control vehicle or vehicle containing Compound A (GATA activator) or vehicle containing pioglitazone (a known antidiabetic drug).

SMILES: CS(=O)(=O)c1ccc(Nc2nc(-c3ccccc3)cc(N3CCC(O)CC3)n2)cc1 [Compound C]
lipid content in aortas (ApoE −/− mice): significantly lowered lipid content

GATA activity (luciferase activity) (GATA): not shown to induce GATA activity
SMILES: CCN1CCCC1CNc1nc(Nc2ccc(OC)c(F)c2)nc(N2CCN(CC(=O)N3CCCC3)CC2)n1 (stereo not shown) [D]
RCT gene expression (RCT genes): did not induce RCT gene induction

SMILES: CC(=O)c1ccc(Nc2nc(-c3ccccc3)cc(N3CCC(O)CC3)n2)cc1 [Compound A]
expression of RCT genes (apolipoprotein E, SRB1 and LCAT) [1]: increased expression of RCT genes
glucose stimulated insulin secretion (Pancreatic beta cells): increased secretion of insulin
HDL (cholesterol fed rat): significantly increased HDL
ability to induce RCT gene expression after GATA knock-down (GATA1): blunting of Compound A's ability to induce RCT gene expression
plasma glucose (Ob/ob mice): significantly lower levels of plasma glucose

SMILES: COc1ccc(Nc2nc(NC3CCCCCC3)nc(N(C)C3CCN(C)CC3)n2)cc1F [E]
GATA activity (luciferase activity) (GATA): not shown to induce GATA activity
RCT gene expression (RCT genes): did not induce RCT gene induction
